Measured values from patent US20110224231A1, “Novel Lactams as Beta Secretase Inhibitors” (Pfizer Inc., priority 2008, published 2011).
pIC50: −log10 of the molar value.

Molecular target: T1, soluble human BACE (Homo sapiens, UniProt P56817)
T1 construct: cells secreting human recombinant soluble BACE; made in house; conditioned medium
Experiment: BACE activity Cell Free Assay (ELISA of cleaved synthetic APP substrate)
Format: biochemical
Procedure: A synthetic APP substrate that can be cleaved by beta˜secretase and having N-terminal biotin is used to assay beta-secretase activity in the presence or absence of the inhibitory compounds. […] The substrate and test compounds are added to 384 well polypropylene plates. The reaction is initiated by the addition of soluble BACE enzyme to a final volume of 12.5 μL per well. The final assay conditions are: 0.001˜300 μM compound inhibitor, 0.05M sodium acetate (pH 4.5), 3 μM substrate, soluble human BACE, and 2% DMSO. Concentrated conditioned media from cells secreting human recombinant soluble BACE was titrated to provide a source of BACE enzyme. The cell media can be used as either a crude BACE prep or BACE can be purified using any number of techniques, including immobilized BACE inhibitor purification columns. The assay mixture is incubated for 1 hour at 37° C., and the reaction is quenched by the addition of an equal volume of 0.1M Tris, pH 8. Half of the quenched mix is incubated on clear streptavidin coated 384 well polystyrene plates for 1 hour. An ELISA is then performed using an in˜house antibody that specifically recognizes the new C˜terminus created after cleavage by BACE. […] (These polyclonal antibodies were raised in rabbits by immunizing with antigen comprised of six amino acid residues present at the carboxy terminus of the wild-type soluble APPbeta sequence (NH2-ISEVKM-COOH) or seven amino acid residues present at the carboxy terminus of the Swedish mutation at the beta cleavage site (NH2-EISEVNL˜COOH) conjugated to keyhole limpet hemacyanin by methods known to those skilled in the art.) A secondary anti˜species Horseradish Peroxidase (HRP) conjugated antibody is then utilized. The readout, following assay development with TMB substrate and quenching with 0.09M sulfuric acid, is absorbance at 450 nm.

T1 sequence (P56817 46-457 limits assumed): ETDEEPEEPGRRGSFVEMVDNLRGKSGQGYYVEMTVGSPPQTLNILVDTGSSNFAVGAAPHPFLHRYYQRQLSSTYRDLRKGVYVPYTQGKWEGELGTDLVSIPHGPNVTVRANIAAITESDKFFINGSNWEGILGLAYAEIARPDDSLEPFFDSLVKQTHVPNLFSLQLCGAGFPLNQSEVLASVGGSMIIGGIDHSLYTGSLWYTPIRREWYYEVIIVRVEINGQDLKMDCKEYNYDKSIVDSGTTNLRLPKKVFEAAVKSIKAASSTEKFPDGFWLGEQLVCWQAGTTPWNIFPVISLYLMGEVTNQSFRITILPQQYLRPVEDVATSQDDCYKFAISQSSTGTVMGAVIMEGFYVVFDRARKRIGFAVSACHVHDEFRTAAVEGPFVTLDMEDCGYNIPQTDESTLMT

| SMILES | pIC50 |
| --- | --- |
| COc1ccc(F)c(CN2CCC3(C=CC(=O)N3c3cccc(F)c3)CC2C)c1 (racemic) [Example 14, Racemic (5R,7S),(5S,7R)-8-(2-fluoro-5-methoxybenzyl)-1-(3-fluorophenyl)-7-methyl-1,8-diazaspiro[4.5]dec-3-en-2-one] | 3.52 to 4.00 |
| CC1CC2(C=CC(=O)N2c2cccc(F)c2)CCN1Cc1ccc(O)c(Cl)c1 (racemic) [Example 15, Racemic (5R,7S),(5S,7R)-8-(3-chloro-4-hydroxybenzyl)-1-(3-fluorophenyl)-7-methyl-1,8-diazaspiro[4.5]dec-3-en-2-one] | 5.00 to 6.00 |
| CC(C)Oc1cccc(CN2CCC3(C=CC(=O)N3c3cccc(F)c3)CC2C)c1 (racemic) [Example 16, Racemic (5R,7S),(5S,7R)-1(3-fluorophenyl)-8-(3-isopropoxybenzyl)-7-methyl-1,8-diazaspiro[4.5]dec-3-en-2-one] | 5.00 to 6.00 |
| CCCOc1cccc(CN2CCC3(C=CC(=O)N3c3cccc(F)c3)CC2C)c1 (racemic) [Example 17, Racemic (5R,7S),(5S,7R)-1-(3-fluorophenyl)-7-methyl-8-(3-propoxybenzyl)-1,8-diazaspiro[4.5]dec-3-en-2-one] | 4.00 to 5.00 |
| CC(C)COc1cccc(CN2CCC3(C=CC(=O)N3c3cccc(F)c3)CC2C)c1 (racemic) [Example 18, Racemic (5R,7S),(5S,7R)-1-(3-fluorophenyl)-8-(3-isobutoxybenzyl)-7-rnethyl-1,8-diazaspiro[4.5]dec-3-en-2-one] | 4.00 to 5.00 |
| CC1CC2(C=CC(=O)N2c2cccc(F)c2)CCN1Cc1cccc(-c2ccccn2)c1 (racemic) [Example 19, Racemic (5R,7S),(5S,7R)-1-(3-fluorophenyl)-7-methyl-8-(3-pyridin-2-ylbenzyl)-1,8-diazaspiro[4.5]dec-3-en-2-one] | 4.00 to 5.00 |
| CC1CC2(C=CC(=O)N2c2cccc(F)c2)CCN1Cc1cccc(OC2CCCC2)c1 (racemic) [Example 20, Racemic (5R,7S),(5S,7R)-8-[3-(cyclopentyloxy)benzyl]-1-(3-fluorophenyl)-7-methyl-1,8-diazaspiro[4.5]dec-3-en-2-one] | 4.00 to 5.00 |
| Cc1ccncc1-c1cccc(CN2CCC3(C=CC(=O)N3c3cccc(F)c3)CC2C)c1 (racemic) [Example 21, Racemic (5R,7S),(5S,7R)-1-(3-fluorophenyl)-7-methyl-8-[3-(4-methylpyridin-3-yl)benzyl]-1,8-diazaspiro[4.5]dec-3-en-2-one] | 5.00 to 6.00 |
| CC1CC2(C=CC(=O)N2c2cccc(F)c2)CCN1Cc1cccc(Oc2ccccc2)c1 (racemic) [Example 22, Racemic (5R,7S),(5S,7R)-1-(3-fluorophenyl)-7-methyl-8-(3-phenoxybenzyl)-1,8-diazaspiro[4.5]dec-3-en-2-one] | 4.00 to 5.00 |
| CC1CC2(C=CC(=O)N2c2cccc(F)c2)CCN1Cc1cc(Br)ccc1F (racemic) [Example 23, Racemic (5R,7S),(5S,7R)-8-(5-bromo-2-fluorobenzyl)-1-(3-fluorophenyl)-7-methyl-1,8-diazaspiro[4.5]dec-3-en-2-one] | 4.00 to 5.00 |
| CC1CC2(C=CC(=O)N2c2cccc(F)c2)CCN1Cc1ccc(F)c(Br)c1 (racemic) [Example 24, Racemic (5R,7S),(5S,7R)-8-(3-bromo-4-fluorobenzyl)-1-(3-fluorophenyl)-7-methyl-1,8-diazaspiro[4.5]dec-3-en-2-one] | 3.52 to 4.00 |
| CC1CC2(C=CC(=O)N2c2cccc(F)c2)CCN1Cc1cccc(-c2cncc(C#N)c2)c1 (racemic) [Example 25, Racemic 5-(3-{[(5R,7S),(5S,7R)-1-(3-fluorophenyl)-7-methyl-2-oxo-1,8-diazaspiro[4.5]dec-3-en-8-yl]methyl}phenyl)nicotinonitrile] | 4.00 to 5.00 |
| CC1CC2(C=CC(=O)N2c2cccc(F)c2)CCN1Cc1nc(-c2ccc(C#N)cc2)cs1 (racemic) [Example 26, Racemic 4-(2-{[(5R,7S),(5S,7R)-1-(3-fluorophenyl)-7-methyl-2-oxo-1,8-diazaspiro[4.5]dec-3-en-8-yl]methyl}-1,3-thiazol-4-yl)benzonitrile] | 4.00 to 5.00 |
| CC1CC2(C=CC(=O)N2c2cccc(F)c2)CCN1Cc1nc(-c2cccc(C#N)c2)cs1 (racemic) [Example 27, Racemic 3-(2-{[(5R,7S),(5S,7R)-1-(3-fluorophenyl)-7-methyl-2-oxo-1,8-diazaspiro[4.5]dec-3-en-8-yl]methyl}-1,3-thiazol-4-yl)benzonitrite] | 4.00 to 5.00 |
| CC(C)NS(=O)(=O)c1cccc(CN2CCC3(C=CC(=O)N3c3cccc(F)c3)CC2C)c1 (racemic) [Example 28, Racemic 3-{[(5R,7S),(5S,7R)-1-(3-fluorophenyl)-7-methyl-2-oxo-1,8-diazaspiro[4.5]dec-3-en-8-yl]methyl}-N-isopropylbenzenesulfonamide] | 4.00 to 5.00 |
| CC1CC2(C=CC(=O)N2c2cccc(F)c2)CCN1Cc1cccc(Oc2ccc(Cl)cc2)c1 (racemic) [Example 29, Racemic (5R,7S),(5S,7R)-8-[3-(4-chlorophenoxy)benzyl]-1-(3-fluorophenyl)-7-methyl-1,8-diazaspiro[4.5]dec-3-en-2-one] | 4.00 to 5.00 |
| CC1CC2(C=CC(=O)N2c2cccc(F)c2)CCN1Cc1cccc(-c2ccc(C(F)(F)F)cn2)c1 (racemic) [Example 30, Racemic (5R,7S),(5S,7R)-1-(3-fluorophenyl)-7-methyl-8-{3-[5-(trifluoromethyl)pyridin-2-yl]benzyl}-1,8-diazaspiro[4.5]dec-3-en-2-one] | 3.52 to 4.00 |
| CCNc1ccc(CN2CCC3(C=CC(=O)N3c3cccc(F)c3)CC2C)cn1 (racemic) [Example 31, Racemic (5R,7S),(5S,7R)-8-{[6-(ethylamino)pyridin-3-yl]methyl}-1-(3-fluorophenyl)-7-methyl-1,8-diazaspiro[4.5]dec-3-en-2-one] | 3.52 to 4.00 |
| CCCNc1ccc(CN2CCC3(C=CC(=O)N3c3cccc(F)c3)CC2C)cn1 (racemic) [Example 32, Racemic (5R,7S),(5S,7R)-1-(3-fluorophenyl)-7-methyl-8-{[6-(propylamino)pyridin-3-yl]methyl}-1,8-diazaspiro[4.5]dec-3-en-2-one] | 3.52 to 4.00 |
| CCOc1cccc(CN2CCC3(CCC(=O)N3c3cccc(F)c3)CC2C)c1 (racemic) [Example 33, Racemic (5R,7S),(5S,7R)-8-(3-ethoxybenzyl)-1-(3-fluorophenyl)-7-methyl-1,8-diazaspiro[4.5]decan-2-one] | 3.52 to 4.00 |
| Cc1ccc(Oc2cccc(CN3CCC4(CCC(=O)N4c4cccc(F)c4)CC3C)c2)cc1 (racemic) [Example 34, Racemic (5R,7S),(5S,7R)-1-(3-fluorophenyl)-7-methyl-8-[3-(4-methylphenoxy)benzyl]-1,8-diazaspiro[4.5]decan-2-one] | 4.00 to 5.00 |
| COc1ccc(Oc2cccc(CN3CCC4(CCC(=O)N4c4cccc(F)c4)CC3C)c2)cc1 (racemic) [Example 35, Racemic (5R,7S),(5S,7R)-1-(3-fluorophenyl)-8-[3-(4-methoxyphenoxy)benzyl]-7-methyl-1,8-diazaspiro[4.5]decan-2-one] | 4.00 to 5.00 |
| CC1CC2(CCC(=O)N2c2cccc(F)c2)CCN1Cc1cccc(S(=O)(=O)N2CCCC2)c1 (racemic) [Example 36, Racemic (5R,7S),(5S,7R)-1-(3-fluorophenyl)-7-methyl-8-[3-(pyrrolidin-1-ylsulfonyl)benzyl]-1,8-diazaspiro[4.5]decan-2-one] | 3.52 to 4.00 |
| CC1CC2(CCC(=O)N2c2cccc(F)c2)CCN1Cc1ccc(O)cc1 (racemic) [Example 37, Racemic (5R,7S),(5S,7R)-1-(3-fluorophenyl)-8-(4-hydroxybenzyl)-7-methyl-1,8-diazaspiro[4.5]decan-2-one] | 4.00 to 5.00 |
| Cc1cc(CN2CCC3(CCC(=O)N3c3cccc(F)c3)CC2C)ccc1O (racemic) [Example 38, Racemic (5R,7S),(5S,7R)-1-(3-fluorophenyl)-8-(4-hydroxy-3-methylbenzyl)-7-methyl-1,8-diazaspiro[4.5]decan-2-one] | 4.00 to 5.00 |
| CCCn1nccc1CN1CCC2(CCC(=O)N2c2cccc(F)c2)CC1C (racemic) [Example 39, Racemic (5R,7S),(5S,7R)-1-(3-fluorophenyl)-7-methyl-8-[(1-propyl-1H-pyrazol-5-yl)methyl]-1,8-diazaspiro[4.5]decan-2-one] | 3.52 to 4.00 |
| CC1CC2(CCC(=O)N2c2cccc(F)c2)CCN1Cc1ccc2[nH]ccc2c1 (racemic) [Example 40, Racemic (5R,7S),(5S,7R)-1-(3-fluorophenyl)-8-(1H-indol-5-ylmethyl)-7-methyl-1,8-diazaspiro[4.5]decan-2-one] | 3.52 to 4.00 |
| CC1CC2(CCC(=O)N2c2cccc(F)c2)CCN1Cc1ccc(O)c(C#N)c1 (racemic) [Example 41, Racemic (5R,7S),(5S,7R)-1(3-fluorophenyl)-7-methyl-2-oxo-1,8-diazaspiro[4.5]dec-8-yl]methyl}-2-hydroxybenzonitrile] | 4.00 to 5.00 |
| COc1cc(CN2CCC3(CCC(=O)N3c3cccc(F)c3)CC2C)ccc1O (racemic) [Example 42, Racemic (5R,7S),(5S,7R)-1-(3-fluorophenyl)-8-(4-hydroxy-3-methoxybenzyl)-7-methyl-1,8-diazaspiro[4.5]decan-2-one] | 4.00 to 5.00 |
